This note sets out measurements from ChEMBL document CHEMBL1649519, “Mitochondrial DNA depletion in rat liver induced by fosalvudine tidoxil, a novel nucleoside reverse transcriptase inhibitor prodrug” (Antimicrob Agents Chemother, 2009).

Holding throughout (conditions): in vivo
For data set [1], the system named is Rattus norvegicus. As to the kind of experiment: Toxicity in Sprague-Dawley rat assessed as mortality at 100 mg/kg, po administered via gavage. Type of data set: organism-based. Further details: dose 100 mg/kg, route oral.
For data set [2], the system named is Rattus norvegicus. Briefly: Toxicity in Sprague-Dawley rat assessed as terminal body weight at 100 mg/kg, po administered via gavage (reference value: 517 +/- 55 g). Type of data set: organism-based. Details: dose 100 mg/kg, route oral.
The test system of data set [3] is Rattus norvegicus. Briefly: Toxicity in Sprague-Dawley rat assessed as liver weight at 100 mg/kg, po administered via gavage (reference value: 18 +/- 2.8 g). Type of data set: organism-based. Details: dose 100 mg/kg, route oral.
The subject of data set [4] is Rattus norvegicus. As to the kind of experiment: Hepatotoxicity in Sprague-Dawley rat assessed as plasma GPT level at 100 mg/kg, po administered via gavage (reference value: 78.3 +/- 8.2 U/l). Type of data set: toxicity, organism-based. Details: dose 100 mg/kg, route oral.
In data set [5] the test system is Rattus norvegicus. As to the kind of experiment: Hepatotoxicity in Sprague-Dawley rat assessed as effect on plasma total bilirubin level at 15 to 100 mg/kg, po administered via gavage. Format: toxicity, organism-based. Details: dose 15-100 mg/kg, route oral.
The test system of data set [6] is Rattus norvegicus. Briefly: Hepatotoxicity in Sprague-Dawley rat assessed as copies of mitochondrial DNA per cell in liver at 100 mg/kg, po administered via gavage (reference value: 400 +/- 86 no_unit). Type of data set: toxicity, organism-based. Further details: dose 100 mg/kg, route oral.
Data set [7] deals with Rattus norvegicus. Briefly: Hepatotoxicity in Sprague-Dawley rat assessed as copies of mitochondrial DNA per cell in gastrocnemius muscle at 100 mg/kg, po administered via gavage (reference value: 457 +/- 182 no_unit). Details: dose 100 mg/kg, route oral. Format: toxicity, organism-based.
Data set [8] concerns Rattus norvegicus. As to the kind of experiment: Hepatotoxicity in Sprague-Dawley rat assessed as copies of mitochondrial DNA per cell in inguinal fat pads at 100 mg/kg, po administered via gavage (reference value: 457 +/- 182 no_unit). Type of data set: toxicity, organism-based, Fat pad. Details: dose 100 mg/kg, route oral.
Data set [9] has as its system Rattus norvegicus. As to the kind of experiment: Hepatotoxicity in Sprague-Dawley rat assessed as copies of mitochondrial DNA per cell in sciatic nerves at 100 mg/kg, po administered via gavage (reference value: 457 +/- 182 no_unit). Details: dose 100 mg/kg, route oral. Format: toxicity, organism-based, Sciatic nerve.
The subject of data set [10] is Rattus norvegicus. Briefly: Toxicity in Sprague-Dawley rat assessed as mortality at 15 mg/kg, po administered via gavage. Type of data set: organism-based. Details: dose 15 mg/kg, route oral.
For data set [11], the system named is Rattus norvegicus. Briefly: Toxicity in Sprague-Dawley rat assessed as mortality at 40 mg/kg, po administered via gavage. Details: dose 40 mg/kg, route oral. Type of data set: organism-based.
Data set [12] relates to Rattus norvegicus. Briefly: Toxicity in Sprague-Dawley rat assessed as terminal body weight at 15 mg/kg, po administered via gavage (reference value: 517 +/- 55 g). Type of data set: organism-based. Details: dose 15 mg/kg, route oral.
The subject of data set [13] is Rattus norvegicus. As to the kind of experiment: Toxicity in Sprague-Dawley rat assessed as terminal body weight at 40 mg/kg, po administered via gavage (reference value: 517 +/- 55 g). Format: organism-based. Further details: dose 40 mg/kg, route oral.
Data set [14] concerns Rattus norvegicus. As to the kind of experiment: Toxicity in Sprague-Dawley rat assessed as liver weight at 15 mg/kg, po administered via gavage (reference value: 18 +/- 2.8 g). Type of data set: organism-based. Details: dose 15 mg/kg, route oral.
Data set [15] deals with Rattus norvegicus. As to the kind of experiment: Toxicity in Sprague-Dawley rat assessed as liver weight at 40 mg/kg, po administered via gavage (reference value: 18 +/- 2.8 g). Format: organism-based. Details: dose 40 mg/kg, route oral.
Data set [16] relates to Rattus norvegicus. Briefly: Hepatotoxicity in Sprague-Dawley rat assessed as plasma GPT level at 15 mg/kg, po administered via gavage (reference value: 78.3 +/- 8.2 U/l). Type of data set: toxicity, organism-based. Details: dose 15 mg/kg, route oral.
In data set [17] the test system is Rattus norvegicus. As to the kind of experiment: Hepatotoxicity in Sprague-Dawley rat assessed as plasma GPT level at 40 mg/kg, po administered via gavage (reference value: 78.3 +/- 8.2 U/l). Format: toxicity, organism-based. Further details: dose 40 mg/kg, route oral.
The subject of data set [18] is Rattus norvegicus. As to the kind of experiment: Hepatotoxicity in Sprague-Dawley rat assessed as copies of mitochondrial DNA per cell in liver at 15 mg/kg, po administered via gavage (reference value: 400 +/- 86). Details: dose 15 mg/kg, route oral. Type of data set: toxicity, organism-based.
Data set [19] concerns Rattus norvegicus. Briefly: Hepatotoxicity in Sprague-Dawley rat assessed as copies of mitochondrial DNA per cell in liver at 40 mg/kg, po administered via gavage (reference value: 400 +/- 86). Format: toxicity, organism-based. Details: dose 40 mg/kg, route oral.
Data set [20] deals with Rattus norvegicus. As to the kind of experiment: Hepatotoxicity in Sprague-Dawley rat assessed as copies of mitochondrial DNA per cell in gastrocnemius muscle at 15 mg/kg, po administered via gavage (reference value: 457 +/- 182 no_unit). Type of data set: toxicity, organism-based. Details: dose 15 mg/kg, route oral.
Data set [21] deals with Rattus norvegicus. Briefly: Hepatotoxicity in Sprague-Dawley rat assessed as copies of mitochondrial DNA per cell in gastrocnemius muscle at 40 mg/kg, po administered via gavage (reference value: 457 +/- 182 no_unit). Format: toxicity, organism-based. Details: dose 40 mg/kg, route oral.
Data set [22] concerns Rattus norvegicus. As to the kind of experiment: Hepatotoxicity in Sprague-Dawley rat assessed as copies of mitochondrial DNA per cell in inguinal fat pads at 15 mg/kg, po administered via gavage (reference value: 457 +/- 182 no_unit). Format: toxicity, organism-based, Fat pad. Details: dose 15 mg/kg, route oral.
Data set [23] concerns Rattus norvegicus. Briefly: Hepatotoxicity in Sprague-Dawley rat assessed as copies of mitochondrial DNA per cell in inguinal fat pads at 40 mg/kg, po administered via gavage (reference value: 457 +/- 182 no_unit). Details: dose 40 mg/kg, route oral. Format: toxicity, organism-based, Fat pad.
Data set [24] has as its system Rattus norvegicus. Briefly: Hepatotoxicity in Sprague-Dawley rat assessed as copies of mitochondrial DNA per cell in sciatic nerves at 15 mg/kg, po administered via gavage (reference value: 457 +/- 182 no_unit). Format: toxicity, organism-based, Sciatic nerve. Details: dose 15 mg/kg, route oral.
Data set [25] deals with Rattus norvegicus. Briefly: Hepatotoxicity in Sprague-Dawley rat assessed as copies of mitochondrial DNA per cell in sciatic nerves at 40 mg/kg, po administered via gavage (reference value: 457 +/- 182 no_unit). Details: dose 40 mg/kg, route oral. Type of data set: toxicity, organism-based, Sciatic nerve.

As to `O=c1[nH]cnc2c1ncn2[C@H]1CC[C@@H](CO)O1` [DIDANOSINE], the Activity result in [1] is reported as “Non-toxic”; in data set [2], 501 g; in data set [3], 16.2 g; in [4], 68.8 U/L; in data set [5], “Non-toxic”; in [6] it was 193. The Activity stood at 489 in data set [7], 129 in [8] and 219 in data set [9].

As to `CCCCCCCCCCCCSC[C@@H](COP(=O)(O)OC[C@H]1O[C@@H](n2cc(C)c(=O)[nH]c2=O)C[C@@H]1F)OCCCCCCCCCC` [FOSALVUDINE TIDOXIL], the Activity entry in data set [10] was “Toxic”; in data set [11], “Toxic”; in data set [1], “Toxic”; in data set [12], 459 g; in [13], 465 g; in data set [2], 428 g. The Activity worked out at 16.8 g in data set [14]; 15.6 g in data set [15]; 14.5 g in data set [3]; 71 U/l in [16]; 80.5 U/L in data set [17]; 96.7 U/L in [4]. Also, the Activity entry in data set [5] is recorded as “Non-toxic”; in data set [18], 249; in [19], 254; in data set [6], 188; in [20], 475; in data set [21], 534. Moreover, the Activity in data set [7] is listed as 548; in data set [22] it was 134; in data set [23] it was 159; in data set [8], 158; in data set [24], 196; in data set [25] it was 205. Besides, the Activity in [9] is 213.
